Some test systems named below: Pseudomonas aeruginosa; Bacillus subtilis; Staphylococcus aureus; Escherichia coli B; Botrytis cinerea; Bacillus subtilis 168.
Holding throughout (assay): ≥ marks a high value that may be exact or a test limit, other limits are often not marked, values filed in µg/mL are converted to µM
Experiment [1] deals with Candida albicans F7-39/IDE99.
The test system of experiment [2] is Escherichia coli ATCC 11775.
For experiment [3], the system named is Candida albicans ATCC 10231.
The test system of experiment [4] is Staphylococcus aureus ATCC 12600.
The subject of experiment [5] is Pseudomonas aeruginosa Ps4.

Structures are written as SMILES. In brackets after ≈: the same amount, converted by molar mass.

Broadly, the MIC is the least concentration at which growth counts as inhibited.

Consider `CC[C@H](C)[C@H](NC(=O)[C@H](C)NC(=O)[C@H](C)NC(=O)[C@H](CC(C)C)NC(=O)[C@@H](NC(=O)[C@H](CCCCN)NC(=O)[C@H](CCCN=C(N)N)NC(=O)[C@@H]1CCCN1C(=O)[C@H](CC(C)C)NC(=O)CN)[C@@H](C)CC)C(=O)N[C@@H](C)C(=O)N[C@@H](CCCCN)C(=O)N[C@@H](CCCCN)C(=O)N[C@@H](CCCCN)C(N)=O` [GLPRKILAAIAKKK], for which the MIC was over 100 µM in the experiment on Pseudomonas aeruginosa; at least 35 µM against Bacillus subtilis; over 100 µM against Staphylococcus aureus; at least 100 µM in the experiment on Escherichia coli B; at least 100 µM in experiment [1].

Take `CC(C)C[C@H](NC(=O)[C@H](C)NC(=O)[C@H](CO)NC(=O)[C@H](C)NC(=O)[C@@H](NC(=O)[C@H](CCCCN)NC(=O)[C@H](CCCCN)NC(=O)[C@@H](NC(=O)[C@H](CC(C)C)NC(=O)CNC(=O)[C@H](CC(C)C)NC(=O)[C@H](CC(C)C)NC(=O)[C@H](CC(=O)O)NC(=O)[C@@H](N)Cc1ccccc1)C(C)C)C(C)C)C(N)=O` [FDLLGLVKKVASAL]: the MIC is 5 µM (≈ 7.36 µg/mL) against Botrytis cinerea, at least 100 µM in experiment [2], 100 µM (≈ 147 µg/mL) in [3] and at least 50 µM in [4].

Take `CC[C@H](C)[C@H](NC(=O)[C@H](C)NC(=O)[C@H](CO)NC(=O)[C@@H](NC(=O)[C@@H](NC(=O)[C@@H](NC(=O)[C@H](Cc1cnc[nH]1)NC(=O)[C@H](CC(C)C)NC(=O)[C@H](CC(=O)O)NC(=O)[C@@H](N)CCCCN)[C@@H](C)O)C(C)C)C(C)C)C(=O)N[C@@H](CC(C)C)C(=O)N[C@@H](CCC(N)=O)C(=O)N[C@@H](C)C(=O)N[C@@H](CC(C)C)C(N)=O` [KDLHTVVSAILQAL]: the MIC is 5.31 µM (≈ 7.99 µg/mL) in the experiment with Botrytis cinerea, at least 66.3 µM in experiment [2], 33.2 µM (≈ 50 µg/mL) in experiment [3] and at least 66.3 µM in [4].

`CC[C@H](C)[C@H](NC(=O)[C@H](Cc1cnc[nH]1)NC(=O)[C@H](CCCCN)NC(=O)[C@H](CC(C)C)NC(=O)[C@H](CC(C)C)NC(=O)[C@H](CCCCN)NC(=O)[C@H](CCSC)NC(=O)[C@H](Cc1c[nH]c2ccccc12)NC(=O)[C@H](CCCCN)NC(=O)CN)C(=O)N[C@@H](CC(C)C)C(=O)N[C@@H](CCCCN)C(N)=O` [GKWMKLLKHILK]: the MIC in the experiment on Pseudomonas aeruginosa was 10.7 µM (≈ 16 µg/mL); in the experiment with Staphylococcus aureus it was 4.5 µM (≈ 6.72 µg/mL); with Bacillus subtilis 168, 0.8 µM (≈ 1.2 µg/mL); against Escherichia coli B, 2.5 µM (≈ 3.73 µg/mL); in [1], 4.5 µM (≈ 6.72 µg/mL).

`CC[C@H](C)[C@H](NC(=O)[C@H](CC(N)=O)NC(=O)[C@H](CCCN=C(N)N)NC(=O)[C@H](CCC(N)=O)NC(=O)[C@H](Cc1c[nH]c2ccccc12)NC(=O)[C@@H](N)CCCN=C(N)N)C(=O)N[C@@H](CCCN=C(N)N)C(=O)N[C@@H](CCCCN)C(=O)N[C@@H](Cc1ccc(O)cc1)C(=O)N[C@@H](CCCN=C(N)N)C(=O)N[C@@H](CCCN=C(N)N)C(N)=O` [RWQRNIRKYRR] showed an MIC in [5] of at least 153 µM.

In experiment [5], `CC[C@H](C)[C@H](NC(=O)[C@H](CC(N)=O)NC(=O)[C@H](CCCN=C(N)N)NC(=O)[C@H](CCC(N)=O)NC(=O)[C@H](Cc1c[nH]c2ccccc12)NC(=O)[C@@H](NC(=O)[C@@H](N)Cc1ccccc1)[C@@H](C)CC)C(=O)N[C@@H](CCCN=C(N)N)C(=O)N[C@@H](CCCCN)C(=O)N[C@H](C(=O)N[C@@H](CCCN=C(N)N)C(N)=O)C(C)C` [FIWQRNIRKVR] gave an MIC of at least 165 µM.

`CC[C@H](C)[C@H](N)C(=O)N[C@@H](CC(C)C)C(=O)N1CCC[C@H]1C(=O)N[C@H](C(=O)N[C@@H](CC(C)C)C(=O)N[C@@H](C)C(=O)N1CCC[C@H]1C(=O)N[C@@H](CC(C)C)C(=O)N[C@H](C(=O)NCC(=O)NCC(=O)N[C@@H](CC(C)C)C(=O)N[C@@H](CC(C)C)C(N)=O)[C@@H](C)CC)[C@@H](C)CC` [ILPILAPLIGGLL]: the MIC in [2] and in experiment [4] was at least 100 µM each time.

The values are drawn from DBAASP.
